Laboratory results reported in PubChem BioAssay (NCI).
Several values for one entry are separate records, joined by “and”; a condition that tells them apart may be missing. Equal entries are not always repeated.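 96-well plates; 48 h exposure; 5 concentrations. Endpoints by linear interpolation between flanking doses. Not reached: highest tested concentration assigned. TGI: total growth inhibition.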

Columns and labels:
Test in all cases: NCI tumour cell line growth inhibition, 48 h
K-562 leukemia = tested on: K-562 leukemia
A549 NSCLC = tested on: A549 NSCLC
MOLT-4 leukemia = tested on: MOLT-4 leukemia
NCI-H522 lung = tested on: NCI-H522 lung
OVCAR-3 ovarian = tested on: OVCAR-3 ovarian
KM12 colon = tested on: KM12 colon
SF-539 CNS = tested on: SF-539 CNS
HCT-15 colon = tested on: HCT-15 colon
SNB-19 CNS = tested on: SNB-19 CNS
HOP-18 NSCLC = tested on: HOP-18 NSCLC
SK-OV-3 ovarian = tested on: SK-OV-3 ovarian
M19-MEL melanoma = tested on: M19-MEL melanoma
SN12C renal = tested on: SN12C renal
SN12K1 renal = tested on: SN12K1 renal
SF-268 CNS = tested on: SF-268 CNS
COLO 205 colon = tested on: COLO 205 colon
RXF 393 renal = tested on: RXF 393 renal
OVCAR-5 ovarian = tested on: OVCAR-5 ovarian
RPMI-8226 leukemia = tested on: RPMI-8226 leukemia
P388 leukemia = tested on: P388 leukemia
UACC-257 melanoma = tested on: UACC-257 melanoma
NCI-H23 lung = tested on: NCI-H23 lung
HCT-116 colon = tested on: HCT-116 colon
HOP-62 NSCLC = tested on: HOP-62 NSCLC
SW-620 colon = tested on: SW-620 colon
HL-60(TB) leukemia = tested on: HL-60(TB) leukemia
EKVX NSCLC = tested on: EKVX NSCLC
LOX IMVI melanoma = tested on: LOX IMVI melanoma
NCI-H226 lung = tested on: NCI-H226 lung
NCI/ADR-RES ovarian = tested on: NCI/ADR-RES ovarian
U251 CNS = tested on: U251 CNS
MCF7 breast = tested on: MCF7 breast
KM20L2 colon = tested on: KM20L2 colon
UO-31 renal = tested on: UO-31 renal
UACC-62 melanoma = tested on: UACC-62 melanoma
SK-MEL-28 melanoma = tested on: SK-MEL-28 melanoma
SNB-78 CNS = tested on: SNB-78 CNS
SK-MEL-2 melanoma = tested on: SK-MEL-2 melanoma
P388/ADR leukemia = tested on: P388/ADR leukemia
HCC-2998 colon = tested on: HCC-2998 colon
MALME-3M melanoma = tested on: MALME-3M melanoma
HOP-92 NSCLC = tested on: HOP-92 NSCLC
OVCAR-4 ovarian = tested on: OVCAR-4 ovarian
DLD-1 colon = tested on: DLD-1 colon
OVCAR-8 ovarian = tested on: OVCAR-8 ovarian
SNB-75 CNS = tested on: SNB-75 CNS
SK-MEL-5 melanoma = tested on: SK-MEL-5 melanoma
HT29 colon = tested on: HT29 colon
A498 renal = tested on: A498 renal
SF-295 CNS = tested on: SF-295 CNS
DMS 273 small cell lung = tested on: DMS 273 small cell lung
XF 498 CNS = tested on: XF 498 CNS
DMS 114 small cell lung = tested on: DMS 114 small cell lung
IGROV1 ovarian = tested on: IGROV1 ovarian
CAKI-1 renal = tested on: CAKI-1 renal
NCI-H460 lung = tested on: NCI-H460 lung
ACHN renal = tested on: ACHN renal
RXF-631 renal = tested on: RXF-631 renal
LXFL 529 NSCLC = tested on: LXFL 529 NSCLC
TK-10 renal = tested on: TK-10 renal
M14 melanoma = tested on: M14 melanoma
CCRF-CEM leukemia = tested on: CCRF-CEM leukemia
786-0 renal = tested on: 786-0 renal
SR leukemia = tested on: SR leukemia

SMILES: C#CC[N+](CCO)(CCO)CCCCCCCCCCCCCCCCCC
- TGI (K-562 leukemia): > 41.2 µM
- TGI (A549 NSCLC): 36.5 µM
- TGI (MOLT-4 leukemia): 9.7 µM
- TGI (NCI-H522 lung): 21.7 µM
- TGI (OVCAR-3 ovarian): 35.9 µM
- TGI (KM12 colon): 8.97 µM
- TGI (SF-539 CNS): 30.2 µM
- TGI (HCT-15 colon): 50.8 µM
- TGI (SNB-19 CNS): 20.7 µM
- TGI (HOP-18 NSCLC): 22.1 µM
- TGI (SK-OV-3 ovarian): 36.1 µM
- TGI (M19-MEL melanoma): 15 µM
- TGI (SN12C renal): 39.3 µM
- TGI (SN12K1 renal): 30 µM
- TGI (SF-268 CNS): 26.2 µM
- TGI (COLO 205 colon): 27.1 µM
- TGI (RXF 393 renal): 6.64 µM
- TGI (OVCAR-5 ovarian): 32.5 µM
- TGI (RPMI-8226 leukemia): > 29 µM
- TGI (P388 leukemia): 2.5 µM
- TGI (UACC-257 melanoma): 31 µM
- TGI (NCI-H23 lung): 30.1 µM
- TGI (HCT-116 colon): 27.4 µM
- TGI (HOP-62 NSCLC): 25.5 µM
- TGI (SW-620 colon): 34.9 µM
- TGI (HL-60(TB) leukemia): 3.43 µM
- TGI (EKVX NSCLC): 51.1 µM
- TGI (LOX IMVI melanoma): > 48.3 µM
- TGI (NCI-H226 lung): 29.2 µM
- TGI (NCI/ADR-RES ovarian): 39.5 µM
- TGI (U251 CNS): 27.5 µM
- TGI (MCF7 breast): 36.5 µM
- TGI (KM20L2 colon): 25.8 µM
- TGI (UO-31 renal): 34.9 µM
- TGI (UACC-62 melanoma): 25.4 µM
- TGI (SK-MEL-28 melanoma): 30.6 µM
- TGI (SNB-78 CNS): 28.4 µM
- TGI (SK-MEL-2 melanoma): 31.8 µM
- TGI (P388/ADR leukemia): > 43.7 µM
- TGI (HCC-2998 colon): 23.7 µM
- TGI (MALME-3M melanoma): 32.3 µM
- TGI (HOP-92 NSCLC): 5.2 µM
- TGI (OVCAR-4 ovarian): 25 µM
- TGI (DLD-1 colon): 24.5 µM
- TGI (OVCAR-8 ovarian): 43.1 µM
- TGI (SNB-75 CNS): 15.9 µM
- TGI (SK-MEL-5 melanoma): 32.1 µM
- TGI (HT29 colon): 20.1 µM
- TGI (A498 renal): 37.8 µM
- TGI (SF-295 CNS): 24.1 µM
- TGI (DMS 273 small cell lung): 22.6 µM
- TGI (XF 498 CNS): 17.3 µM
- TGI (DMS 114 small cell lung): 33 µM
- TGI (IGROV1 ovarian): 5.13 µM
- TGI (CAKI-1 renal): 15.9 µM
- TGI (NCI-H460 lung): 27.9 µM

SMILES: O=NN(CCCl)C(=O)NC1CCC(C(=O)O)CC1 (stereo not given)
- TGI (K-562 leukemia): > 100 µM
- TGI (A549 NSCLC): > 100 µM
- TGI (MOLT-4 leukemia): > 80.9 µM
- TGI (NCI-H522 lung): 75.1 µM and > 100 µM
- TGI (ACHN renal): > 100 µM
- TGI (OVCAR-3 ovarian): > 100 µM
- TGI (KM12 colon): > 100 µM
- TGI (SF-539 CNS): > 100 µM
- TGI (HCT-15 colon): > 100 µM
- TGI (SNB-19 CNS): > 100 µM
- TGI (HOP-18 NSCLC): > 100 µM
- TGI (RXF-631 renal): > 100 µM
- TGI (LXFL 529 NSCLC): > 100 µM
- TGI (SK-OV-3 ovarian): > 100 µM
- TGI (M19-MEL melanoma): > 100 µM
- TGI (TK-10 renal): > 100 µM
- TGI (SN12C renal): > 100 µM
- TGI (SN12K1 renal): > 100 µM
- TGI (M14 melanoma): > 100 µM
- TGI (SF-268 CNS): > 100 µM
- TGI (CCRF-CEM leukemia): > 100 µM
- TGI (COLO 205 colon): > 100 µM
- TGI (RXF 393 renal): > 100 µM
- TGI (OVCAR-5 ovarian): > 100 µM
- TGI (RPMI-8226 leukemia): > 100 µM
- TGI (P388 leukemia): 16.2 µM and 19.2 µM
- TGI (UACC-257 melanoma): > 100 µM
- TGI (786-0 renal): > 100 µM
- TGI (NCI-H23 lung): > 100 µM
- TGI (HCT-116 colon): > 100 µM
- TGI (HOP-62 NSCLC): > 100 µM
- TGI (SW-620 colon): > 100 µM
- TGI (HL-60(TB) leukemia): > 100 µM
- TGI (EKVX NSCLC): > 100 µM
- TGI (LOX IMVI melanoma): > 100 µM
- TGI (NCI-H226 lung): > 100 µM
- TGI (NCI/ADR-RES ovarian): > 100 µM
- TGI (U251 CNS): > 100 µM
- TGI (MCF7 breast): > 100 µM
- TGI (KM20L2 colon): > 100 µM
- TGI (UO-31 renal): > 100 µM
- TGI (UACC-62 melanoma): > 100 µM
- TGI (SK-MEL-28 melanoma): > 100 µM
- TGI (SNB-78 CNS): > 100 µM
- TGI (SK-MEL-2 melanoma): > 100 µM
- TGI (P388/ADR leukemia): 17.5 µM and 33.8 µM
- TGI (HCC-2998 colon): > 100 µM
- TGI (MALME-3M melanoma): > 100 µM
- TGI (HOP-92 NSCLC): > 100 µM
- TGI (SR leukemia): > 100 µM
- TGI (OVCAR-4 ovarian): > 100 µM
- TGI (DLD-1 colon): > 100 µM
- TGI (OVCAR-8 ovarian): > 100 µM
- TGI (SNB-75 CNS): > 100 µM
- TGI (SK-MEL-5 melanoma): > 100 µM
- TGI (HT29 colon): > 100 µM
- TGI (A498 renal): > 100 µM
- TGI (SF-295 CNS): > 100 µM
- TGI (DMS 273 small cell lung): > 100 µM
- TGI (XF 498 CNS): > 100 µM
- TGI (DMS 114 small cell lung): > 100 µM and 49 µM
- TGI (IGROV1 ovarian): > 100 µM
- TGI (CAKI-1 renal): > 100 µM
- TGI (NCI-H460 lung): > 100 µM
